Assay results from article PMC9150124, “Design of a Potent, Selective, and Brain-Penetrant Inhibitor of Wnt-Deactivating Enzyme Notum by Optimization of a Crystallographic Fragment Hit” (Journal of Medicinal Chemistry, 2022).

Assays:
Assay in all cases: SelectScreen kinase profiling, SSBK LanthaScreen Binding SP Technology
[1] = molecular target: kinase named in conditions (Homo sapiens, UniProt O00444); settings: PLK4, 10 μM
[2] = molecular target: kinase named in conditions (Homo sapiens, UniProt P00519, H396P); settings: ABL1 H396P, 10 μM
[3] = molecular target: kinase named in conditions (Homo sapiens, UniProt P00519, Q252H); settings: ABL1 Q252H, 10 μM
[4] = molecular target: kinase named in conditions (Homo sapiens, UniProt P04049, Y340D/Y341D); settings: RAF1 (cRAF) Y340D Y341D, 10 μM
[5] = molecular target: kinase named in conditions (Homo sapiens, UniProt P07949, G691S); settings: RET G691S, 10 μM
[6] = molecular target: kinase named in conditions (Homo sapiens, UniProt P07949, V804M); settings: RET V804M, 10 μM
[7] = molecular target: kinase named in conditions (Homo sapiens, UniProt P15056); settings: BRAF, 10 μM
[8] = molecular target: kinase named in conditions (Homo sapiens, UniProt P27037); settings: ACVR2A, 10 μM
[9] = molecular target: kinase named in conditions (Homo sapiens, UniProt P29320); settings: EPHA3, 10 μM
[10] = molecular target: kinase named in conditions (Homo sapiens, UniProt P36507); settings: MAP2K2 (MEK2), 10 μM
[11] = molecular target: kinase named in conditions (Homo sapiens, UniProt P45983); settings: MAPK8 (JNK1), 10 μM
[12] = molecular target: kinase named in conditions (Homo sapiens, UniProt P53779); settings: MAPK10 (JNK3), 10 μM
[13] = molecular target: kinase named in conditions (Homo sapiens, UniProt P57059); settings: SIK1, 10 μM
Chain of kinase named in conditions (Homo sapiens, UniProt P57059) (P57059 whole entry): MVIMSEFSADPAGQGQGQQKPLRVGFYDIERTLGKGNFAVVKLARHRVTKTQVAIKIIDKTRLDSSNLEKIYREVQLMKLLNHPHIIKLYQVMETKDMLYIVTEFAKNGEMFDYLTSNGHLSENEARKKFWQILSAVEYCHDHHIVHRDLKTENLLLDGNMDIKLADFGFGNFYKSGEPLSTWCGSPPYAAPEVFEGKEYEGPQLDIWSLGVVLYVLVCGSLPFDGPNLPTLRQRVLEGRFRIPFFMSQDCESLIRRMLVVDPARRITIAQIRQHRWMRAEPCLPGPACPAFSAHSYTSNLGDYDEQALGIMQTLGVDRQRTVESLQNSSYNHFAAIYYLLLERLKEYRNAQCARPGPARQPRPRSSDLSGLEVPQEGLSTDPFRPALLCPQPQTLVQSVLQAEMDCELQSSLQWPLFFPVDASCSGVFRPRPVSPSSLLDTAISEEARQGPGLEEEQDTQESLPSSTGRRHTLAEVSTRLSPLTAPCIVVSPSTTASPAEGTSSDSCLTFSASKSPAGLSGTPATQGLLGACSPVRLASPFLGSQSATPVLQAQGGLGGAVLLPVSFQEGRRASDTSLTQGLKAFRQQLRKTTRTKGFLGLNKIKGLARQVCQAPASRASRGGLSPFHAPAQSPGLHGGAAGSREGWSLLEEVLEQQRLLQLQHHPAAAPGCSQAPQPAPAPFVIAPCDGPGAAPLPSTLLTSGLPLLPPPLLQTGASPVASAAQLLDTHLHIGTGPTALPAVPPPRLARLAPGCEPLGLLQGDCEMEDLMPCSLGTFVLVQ

[14] = molecular target: kinase named in conditions (Homo sapiens, UniProt Q00526); settings: CDK3/cyclin E1, 10 μM
[15] = molecular target: kinase named in conditions (Homo sapiens, UniProt Q04771); settings: ACVR1 (ALK2), 10 μM
Chain of kinase named in conditions (Homo sapiens, UniProt Q04771) (Q04771 21-509): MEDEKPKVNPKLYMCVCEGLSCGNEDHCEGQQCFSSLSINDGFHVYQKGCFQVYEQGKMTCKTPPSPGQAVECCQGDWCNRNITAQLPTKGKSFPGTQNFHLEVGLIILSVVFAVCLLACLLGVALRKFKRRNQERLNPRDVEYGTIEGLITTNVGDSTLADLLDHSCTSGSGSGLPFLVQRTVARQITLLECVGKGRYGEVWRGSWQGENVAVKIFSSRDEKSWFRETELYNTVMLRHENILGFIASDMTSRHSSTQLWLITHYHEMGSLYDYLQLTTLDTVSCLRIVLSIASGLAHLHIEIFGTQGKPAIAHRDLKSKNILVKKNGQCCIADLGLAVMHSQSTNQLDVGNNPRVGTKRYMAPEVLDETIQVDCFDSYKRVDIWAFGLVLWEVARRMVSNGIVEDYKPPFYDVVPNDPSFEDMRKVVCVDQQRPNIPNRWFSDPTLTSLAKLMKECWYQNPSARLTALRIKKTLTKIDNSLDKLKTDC

[16] = molecular target: kinase named in conditions (Homo sapiens, UniProt Q13555); settings: CAMK2G (CaMKII gamma), 10 μM
[17] = molecular target: kinase named in conditions (Homo sapiens, UniProt Q15208); settings: STK38 (NDR), 10 μM
[18] = molecular target: kinase named in conditions (Homo sapiens, UniProt Q16584); settings: MAP3K11 (MLK3), 10 μM
[19] = molecular target: kinase named in conditions (Homo sapiens, UniProt Q5TCX8); settings: MLK4, 10 μM
Chain of kinase named in conditions (Homo sapiens, UniProt Q5TCX8) (Q5TCX8 whole entry): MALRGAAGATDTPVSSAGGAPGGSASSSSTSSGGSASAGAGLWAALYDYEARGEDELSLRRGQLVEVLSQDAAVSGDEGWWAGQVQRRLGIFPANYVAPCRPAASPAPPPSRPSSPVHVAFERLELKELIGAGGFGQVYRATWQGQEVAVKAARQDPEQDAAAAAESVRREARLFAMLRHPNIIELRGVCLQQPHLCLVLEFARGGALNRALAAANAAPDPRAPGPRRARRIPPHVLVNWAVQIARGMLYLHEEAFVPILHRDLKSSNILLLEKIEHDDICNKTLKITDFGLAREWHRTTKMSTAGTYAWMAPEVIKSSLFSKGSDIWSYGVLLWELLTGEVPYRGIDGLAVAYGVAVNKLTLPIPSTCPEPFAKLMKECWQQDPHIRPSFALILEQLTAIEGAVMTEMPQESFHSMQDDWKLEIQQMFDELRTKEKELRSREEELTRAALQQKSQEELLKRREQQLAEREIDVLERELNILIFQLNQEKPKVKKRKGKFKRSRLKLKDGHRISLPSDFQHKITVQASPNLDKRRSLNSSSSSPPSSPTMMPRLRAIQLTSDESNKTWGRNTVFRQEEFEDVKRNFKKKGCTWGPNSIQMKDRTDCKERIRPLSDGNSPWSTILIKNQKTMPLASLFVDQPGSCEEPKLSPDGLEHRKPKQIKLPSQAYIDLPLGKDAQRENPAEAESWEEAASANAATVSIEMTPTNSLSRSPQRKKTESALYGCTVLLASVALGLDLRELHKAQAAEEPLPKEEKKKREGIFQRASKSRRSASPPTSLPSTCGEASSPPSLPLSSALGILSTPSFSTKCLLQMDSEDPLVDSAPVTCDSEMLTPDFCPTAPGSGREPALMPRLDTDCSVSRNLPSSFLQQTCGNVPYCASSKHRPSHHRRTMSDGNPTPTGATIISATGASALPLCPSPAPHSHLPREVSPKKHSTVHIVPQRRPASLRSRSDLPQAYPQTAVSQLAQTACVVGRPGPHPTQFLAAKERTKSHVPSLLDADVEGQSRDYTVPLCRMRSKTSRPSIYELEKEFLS

[20] = molecular target: kinase named in conditions (Homo sapiens, UniProt Q86SG6); settings: NEK8, 10 μM
[21] = molecular target: kinase named in conditions (Homo sapiens, UniProt Q86UX6); settings: STK32C (YANK3), 10 μM
[22] = molecular target: kinase named in conditions (Homo sapiens, UniProt Q8IWQ3); settings: BRSK2, 10 μM
[23] = molecular target: kinase named in conditions (Homo sapiens, UniProt Q8WXR4); settings: MYO3B (MYO3 beta), 10 μM
[24] = molecular target: kinase named in conditions (Homo sapiens, UniProt Q96S53); settings: TESK2, 10 μM
[25] = molecular target: kinase named in conditions (Homo sapiens, UniProt Q99640); settings: PKMYT1, 10 μM
Chain of kinase named in conditions (Homo sapiens, UniProt Q99640) (Q99640 whole entry): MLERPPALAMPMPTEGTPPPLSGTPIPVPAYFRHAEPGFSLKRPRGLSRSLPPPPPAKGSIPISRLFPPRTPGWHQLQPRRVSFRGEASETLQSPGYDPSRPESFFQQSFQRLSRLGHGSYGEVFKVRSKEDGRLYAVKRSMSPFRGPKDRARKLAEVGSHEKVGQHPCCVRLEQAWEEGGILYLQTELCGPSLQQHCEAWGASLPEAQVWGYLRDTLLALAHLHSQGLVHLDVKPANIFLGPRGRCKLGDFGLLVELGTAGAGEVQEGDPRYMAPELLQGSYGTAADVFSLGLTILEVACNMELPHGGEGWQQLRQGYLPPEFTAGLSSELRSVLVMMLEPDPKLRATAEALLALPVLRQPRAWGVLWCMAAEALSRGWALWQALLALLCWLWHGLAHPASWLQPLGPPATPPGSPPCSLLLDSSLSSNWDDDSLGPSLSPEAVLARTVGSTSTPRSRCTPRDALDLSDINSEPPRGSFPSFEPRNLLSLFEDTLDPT

[26] = molecular target: kinase named in conditions (Homo sapiens, UniProt Q9BYT3); settings: STK33, 10 μM
[27] = molecular target: kinase named in conditions (Homo sapiens, UniProt Q9H2G2); settings: SLK, 10 μM
[28] = molecular target: kinase named in conditions (Homo sapiens, UniProt Q9UIK4); settings: DAPK2, 10 μM
[29] = molecular target: kinase named in conditions (Homo sapiens, UniProt Q9Y2K2); settings: SIK3, 10 μM
Chain of kinase named in conditions (Homo sapiens, UniProt Q9Y2K2) (Q9Y2K2 whole entry): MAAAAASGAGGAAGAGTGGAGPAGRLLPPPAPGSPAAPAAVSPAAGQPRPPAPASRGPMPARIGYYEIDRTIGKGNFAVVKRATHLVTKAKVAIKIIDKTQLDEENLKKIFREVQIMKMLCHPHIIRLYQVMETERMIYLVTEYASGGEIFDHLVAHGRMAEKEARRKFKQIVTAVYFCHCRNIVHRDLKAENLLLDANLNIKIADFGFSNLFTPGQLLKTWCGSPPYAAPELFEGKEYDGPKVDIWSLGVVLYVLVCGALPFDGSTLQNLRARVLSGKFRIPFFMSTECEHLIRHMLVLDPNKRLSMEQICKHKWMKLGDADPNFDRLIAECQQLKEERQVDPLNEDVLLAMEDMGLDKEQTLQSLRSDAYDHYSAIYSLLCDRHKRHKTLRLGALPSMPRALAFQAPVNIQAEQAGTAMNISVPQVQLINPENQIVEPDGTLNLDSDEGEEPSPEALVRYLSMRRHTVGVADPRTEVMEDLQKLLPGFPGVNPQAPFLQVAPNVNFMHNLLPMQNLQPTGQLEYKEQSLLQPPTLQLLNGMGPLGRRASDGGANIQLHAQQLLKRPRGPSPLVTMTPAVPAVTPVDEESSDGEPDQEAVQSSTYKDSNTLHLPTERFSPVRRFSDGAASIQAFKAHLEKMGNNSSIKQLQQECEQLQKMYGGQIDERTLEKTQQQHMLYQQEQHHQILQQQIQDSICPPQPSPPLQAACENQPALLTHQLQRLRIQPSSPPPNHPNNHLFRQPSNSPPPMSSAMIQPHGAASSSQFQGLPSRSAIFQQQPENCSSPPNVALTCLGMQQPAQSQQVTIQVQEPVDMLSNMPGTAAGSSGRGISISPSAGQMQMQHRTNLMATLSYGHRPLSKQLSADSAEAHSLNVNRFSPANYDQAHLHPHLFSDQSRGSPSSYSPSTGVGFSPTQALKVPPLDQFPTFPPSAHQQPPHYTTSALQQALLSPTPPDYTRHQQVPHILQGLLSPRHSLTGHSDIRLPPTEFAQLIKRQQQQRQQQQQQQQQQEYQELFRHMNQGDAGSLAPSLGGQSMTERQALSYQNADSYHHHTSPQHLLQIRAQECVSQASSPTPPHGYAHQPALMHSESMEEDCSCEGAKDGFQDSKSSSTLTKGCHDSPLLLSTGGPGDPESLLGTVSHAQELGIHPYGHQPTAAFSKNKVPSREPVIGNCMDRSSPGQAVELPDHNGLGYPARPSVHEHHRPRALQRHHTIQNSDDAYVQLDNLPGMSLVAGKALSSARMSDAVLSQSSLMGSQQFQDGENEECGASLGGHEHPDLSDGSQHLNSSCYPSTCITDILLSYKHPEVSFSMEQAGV

[30] = molecular target: kinase named in conditions (Homo sapiens, UniProt Q9Y3S1); settings: WNK2, 10 μM
[31] = molecular target: kinase named in conditions (Homo sapiens, UniProt Q9Y572); settings: RIPK3, 10 μM
[32] = molecular target: kinase named in conditions (Homo sapiens, UniProt Q9Y616); settings: IRAK3, 10 μM

Chain of kinase named in conditions (Homo sapiens, UniProt O00444) (O00444 whole entry): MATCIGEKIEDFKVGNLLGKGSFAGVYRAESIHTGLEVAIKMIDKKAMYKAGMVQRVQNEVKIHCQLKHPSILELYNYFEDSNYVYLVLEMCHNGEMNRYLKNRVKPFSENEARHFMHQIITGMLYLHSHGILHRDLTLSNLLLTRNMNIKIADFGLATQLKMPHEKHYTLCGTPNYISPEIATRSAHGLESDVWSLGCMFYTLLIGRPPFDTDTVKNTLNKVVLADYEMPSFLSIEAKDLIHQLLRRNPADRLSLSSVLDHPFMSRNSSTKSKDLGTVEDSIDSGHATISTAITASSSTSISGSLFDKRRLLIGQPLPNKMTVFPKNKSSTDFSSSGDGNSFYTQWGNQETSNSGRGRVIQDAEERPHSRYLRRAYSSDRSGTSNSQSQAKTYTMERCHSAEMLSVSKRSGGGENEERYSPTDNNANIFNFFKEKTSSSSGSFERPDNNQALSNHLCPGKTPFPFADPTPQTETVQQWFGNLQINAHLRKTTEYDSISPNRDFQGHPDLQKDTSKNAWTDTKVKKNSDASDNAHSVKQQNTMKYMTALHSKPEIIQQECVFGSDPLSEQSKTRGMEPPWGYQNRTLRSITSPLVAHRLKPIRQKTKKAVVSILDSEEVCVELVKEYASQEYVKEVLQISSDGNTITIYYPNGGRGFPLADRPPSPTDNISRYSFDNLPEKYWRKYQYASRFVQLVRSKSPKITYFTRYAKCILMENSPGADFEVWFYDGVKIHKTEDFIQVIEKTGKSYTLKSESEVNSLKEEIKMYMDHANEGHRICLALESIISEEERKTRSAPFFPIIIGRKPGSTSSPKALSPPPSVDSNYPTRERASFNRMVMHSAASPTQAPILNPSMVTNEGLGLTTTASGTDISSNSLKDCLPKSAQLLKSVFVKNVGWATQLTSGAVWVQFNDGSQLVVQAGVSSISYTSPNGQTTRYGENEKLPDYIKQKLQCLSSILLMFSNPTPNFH

FC(F)(F)c1c(Cl)ccc(-n2ccnn2)c1Cl [8l, 1-(2,4-Dichloro-3-(trifluoromethyl)phenyl)-1H-1,2,3-triazole]
inhibition at 10 µM [1]: -1%
inhibition at 10 µM [2]: 7%
inhibition at 10 µM [3]: 10%
inhibition at 10 µM [4]: -3%
inhibition at 10 µM [5]: -8%
inhibition at 10 µM [6]: 8%
inhibition at 10 µM [7]: 7%
inhibition at 10 µM [8]: 4%
inhibition at 10 µM [9]: 7%
inhibition at 10 µM [10]: 5%
inhibition at 10 µM [11]: -9%
inhibition at 10 µM [12]: -1%
inhibition at 10 µM [13]: -3%
inhibition at 10 µM [14]: 4%
inhibition at 10 µM [15]: 12%
inhibition at 10 µM [16]: 1%
inhibition at 10 µM [17]: -8%
inhibition at 10 µM [18]: 3%
inhibition at 10 µM [19]: 11%
inhibition at 10 µM [20]: 2%
inhibition at 10 µM [21]: 8%
inhibition at 10 µM [22]: 4%
inhibition at 10 µM [23]: 4%
inhibition at 10 µM [24]: 6%
inhibition at 10 µM [25]: 0%
inhibition at 10 µM [26]: 6%
inhibition at 10 µM [27]: 4%
inhibition at 10 µM [28]: 23%
inhibition at 10 µM [29]: 4%
inhibition at 10 µM [30]: 2%
inhibition at 10 µM [31]: 10%
inhibition at 10 µM [32]: 15%
